Here are results for 29 molecules from patent US7432283B2, “Heterocyclic GABAA subtype selective receptor modulators” (Roche Palo Alto LLC, priority 2004, dated 2008).

The term melting point denotes the temperature of the solid-liquid transition. `COc1ccc(N2CCCc3c2nn(C)c3Br)c(C)c1` [Compound 1-7, 3-Bromo-2-methyl-7-(4-methoxy 2-methyl-phenyl)-4,5,6,7-tetrahydro-2H-pyrazolo[3,4-b]pyridine]: the melting point lay within 101.7 to 104.1 °C.

`Cc1cc(C)c(N2CCCc3c2nn(C)c3C(O)c2ccco2)c(C)c1` (centres unmarked) [Compound 2-9, Furan-2-yl[2-methyl-7-(2,4,6-trimethyl-phenyl)-4,5,6,7-tetrahydro-2H-pyrazolo[3,4-b]pyridin-3-yl]methanol] registered a melting point of 163.1 to 174.4 °C. On to `CO/N=C(\C)c1c2c(nn1C)N(c1c(C)cc(C)cc1C)CCC2` [Compound 6-4, 1-[2-Methyl-7-(2,4,6-trimethyl-phenyl)-4,5,6,7-tetrahydro-2H-pyrazolo[3,4-b]pyridin-3-yl]-ethanone O-methyl-oxime], for which the melting point was 104.2 to 106.4 °C.

`CC/C=C(\CCC)c1c2c(nn1C)N(c1c(C)cc(C)cc1C)CCCC2` [Compound 3-4, 2-Methyl-3-(1-propylbut-1-enyl)-8-(2,4,6-trimethylphenyl)-2,4,5,6,7,8-hexahydro-1,2,8-triazaazulene] displayed a melting point of 101.9 to 103.9 °C. Take `CC/C=C(\CCC)c1c2c(nn1C)N(c1c(C)cc(C)cc1Cl)CCC2` [Compound 3-1, 7-(2-Chloro-4,6-dimethylphenyl)-2-methyl-3-(1-propylbut-1-enyl)-4,5,6,7-tetrahydro-2H-pyrazolo[3,4-b]pyridine]: the melting point lay in the range of 86.7 to 88.2 °C. Under `CCCC(O)(CCC)c1c2c(nn1C)N(c1ccc(Cl)cc1Cl)CCC2` [Compound 2-5, 4-[7-(2,4-Dichlorophenyl)-2-methyl-4,5,6,7-tetrahydro-2H-pyrazolo [3,4-b]pyridin-3-yl]heptan-4-ol] stands 121.4 to 122.6 °C; under `Cc1cc(C)c(N2CCCc3c2nn(C)c3C(C)(C)O)c(C)c1` [Compound 2-16, 2-[7-(2,4,6-trimethyl-phenyl)-2-methyl-4,5,6,7-tetrahydro-2H-pyrazolo[3,4-b]pyridin-3-yl]-propan-2-ol], 158.9 to 161.6 °C. Then `Cc1cc(C)c(N2CCCc3c2nn(C)c3C(=O)O)c(C)c1` [Compound 5-2, 7-(2,4,6-Trimethylphenyl)-2-methyl-4,5,6,7-tetrahydro-2H-pyrazolo[3,4-b]pyridine-3-carboxylic acid], with 228.6 to 233.9 °C; and `Cn1nc2c(c1-c1ccncc1)CCCN2c1ccc(Cl)cc1Cl` [Compound 9-3, 7-(2,4-Dichloro-phenyl)-2-methyl-3-pyridin-4-yl-4,5,6,7-tetrahydro-2H-pyrazolo[3,4-b]pyridine], with 123.5 to 125.5 °C; and `CCC(COC)Nc1c2c(nn1C)N(c1c(C)cc(C)cc1C)CCC2` (centres unmarked) [Compound 5-40, (1-Methoxymethylpropyl)-[2-methyl-7-(2,4,6-trimethylphenyl)-4,5,6,7-tetrahydro-2H-pyrazolo[3,4-b]pyridin-3-yl]-amine], with 96.5 to 102.5 °C. Under `CCCC(O)(c1nccs1)c1c2c(nn1C)N(c1c(C)cc(C)cc1C)CCC2` (centres unmarked) [Compound 2-8, 1-[2-Methyl-7-(2,4,6-trimethylphenyl)-4,5,6,7-tetrahydro-2H-pyrazolo[3,4-b]pyridin-3-yl]-1-thiazol-2-ylbutan-1-ol] stands 160.1 to 165.6 °C; under `CCCC(O)(c1nccn1CC)c1c2c(nn1C)N(c1c(C)cc(C)cc1C)CCC2` (centres unmarked) [Compound 2-11, 1-(1-Ethyl-1H-imidazol-2-yl)-1-[2-methyl-7-(2,4,6-trimethylphenyl)-4,5,6,7-tetrahydro-2H-pyrazolo[3,4-b]pyridin-3-yl]butan-1-ol], 94.9 to 100.9 °C.

On to `CSc1c2c(nn1C)N(c1c(C)cc(C)cc1C)CCC2` [Compound 2-20, 2-Methyl-3-methylsulfanyl-7-(2,4,6-trimethyl-phenyl)-4,5,6,7-tetrahydro-2H-pyrazolo[3,4-b]pyridine], for which the melting point was 90.3 to 91.7 °C.

`Cc1cc(C)c(N2CCCc3c2nn(C)c3S(C)(=O)=O)c(C)c1` [Compound 2-21, 3-Methanesulfonyl-2-methyl-7-(2,4,6-trimethyl-phenyl)-4,5,6,7-tetrahydro-2H-pyrazolo[3,4-b]pyridine] came in with a melting point of 181.6 to 183 °C. In turn, `Cn1nc2c(c1C(=O)c1ccccn1)CCCN2c1ccc(Cl)cc1Cl` [Compound 6-1, [7-(2,4-Dichloro-phenyl)-2-methyl-4,5,6,7-tetrahydro-2H-pyrazolo[3,4-b]pyridin-2-yl]-methanone] came in with a melting point of 142.1 to 149.2 °C. Under `CC(O)c1c2c(nn1C)N(c1ccc(Cl)cc1Cl)CCC2` (centres unmarked) [Compound 2-14, 1-[7-(2,4-Dichloro-phenyl)-2-methyl-4,5,6,7-tetrahydro-2H-pyrazolo[3,4-b]pyridin-3-yl]-ethanol] stands 56.7 to 64 °C; under `CCCN(CCC)c1c2c(nn1C)N(c1c(C)cc(C)cc1C)CCC2` [Compound 5-35, [2-Methyl-7-(2,4,6-trimethylphenyl)-4,5,6,7-tetrahydro-2H-pyrazolo[3,4-b]pyridin-3-yl]-dipropylamine], 88.9 to 91.5 °C. Under `COCC(O)(COC)c1c2c(nn1C)N(c1c(C)cc(C)cc1C)CCC2` [Compound 2-6, 1,3-Dimethoxy-2-[2-methyl-7-(2,4,6-trimethylphenyl)-4,5,6,7-tetrahydro-2H-pyrazolo[3,4-b]pyridin-3-yl]propan-2-ol] stands 120.3 to 121.8 °C; under `CCc1c2c(nn1C)N(c1c(C)cc(C)cc1C)CCC2` [Compound 4-5, 3-Ethyl-2-methyl-7-(2,4,6-trimethyl-phenyl)-4,5,6,7-tetrahydro-2H-pyrazolo[3,4-b]pyridine], 79.7 to 81.4 °C. Under `Cc1cc(C)c(N2CCCc3cn(C)nc32)c(Cl)c1` [Compound 2-13, 7-(2-Chloro-4,6-dimethylphenyl)-2-methyl-4,5,6,7-tetrahydro-2H-pyrazolo[3,4-b]pyridine] stands 97 to 98 °C; under `Cc1cc(C)c(N2CCCc3c2nn(C)c3C(C)O)c(C)c1` (centres unmarked) [Compound 2-15, 1-[7-(2,4,6-trimethyl-phenyl)-2-methyl-4,5,6,7-tetrahydro-2H-pyrazolo[3,4-b]pyridin-3-yl]-ethanol], 178 to 179.6 °C. Consider `CO/N=C/c1c2c(nn1C)N(c1c(C)cc(C)cc1C)CCC2` [Compound 6-5, 2-Methyl-7-(2,4,6-trimethyl-phenyl)-4,5,6,7-tetrahydro-2H-pyrazolo[3,4-b] pyridine-3-carbaldehyde O-methyl-oxime], for which the melting point lay in the range of 89 to 90.1 °C. Under `Cc1cc(C)c(N2CCCc3c2nn(C)c3C2(O)CCOCC2)c(C)c1` [Compound 2-12, 4-[2-Methyl-7-(2,4,6-trimethylphenyl)-4,5,6,7-tetrahydro-2H-pyrazolo[3,4-b]pyridin-3-yl]tetrahydropyran-4-ol] stands 193 to 195.1 °C; under `CCOC(=O)Nc1c2c(nn1C)N(c1c(C)cc(C)cc1Cl)CCC2` [Compound 5-4, [7-(2-Chloro-4,6-dimethylphenyl)-2-methyl-4,5,6,7-tetrahydro-2H-pyrazolo[3,4-b]pyridin-3-yl]carbamic acid ethyl ester], 204 to 207.8 °C; under `Cc1cc(C)c(N2CCCc3c2nn(C)c3-c2ccccc2C(F)(F)F)c(C)c1` [Compound 9-1, 2-Methyl-3-(2-trifluoromethyl-phenyl)-7-(2,4,6-trimethyl-phenyl)-4,5,6,7-tetrahydro-2H-pyrazolo[3,4-b]pyridine], 59 to 63 °C. Then `CCC(=O)Nc1c2c(nn1C)N(c1c(C)cc(C)cc1C)CCC2` [Compound 7-3, N-[2-Methyl-7-(2,4,6-trimethylphenyl)-4,5,6,7-tetrahydro-2H-pyrazolo[3,4-b]pyridin-3-yl]propionamide], with 226 to 228 °C; and `CNc1c2c(nn1C)N(c1c(C)cc(C)cc1C)CCC2` [Compound 5-49, Methyl-[2-methyl-7-(2,4,6-trimethyl-phenyl)-4,5,6,7-tetrahydro-2H-pyrazolo[3,4-b]pyridin-3-yl]-amine], with 143.3 to 144.9 °C. Under `CCC(O)c1c2c(nn1C)N(c1c(C)cc(C)cc1C)CCC2` (centres unmarked) [Compound 2-10, 1-[2-Methyl-7-(2,4,6-trimethylphenyl)-4,5,6,7-tetrahydro-2H-pyrazolo[3,4-b]pyridin-3-yl]propan-1-ol] stands 179.4 to 180.9 °C; under `Cn1nc2c(c1-c1cncnc1)CCCN2c1ccc(Cl)cc1Cl` [Compound 9-2, 7-(2,4-Dichloro-phenyl)-2-methyl-3-pyrimidin-5-yl-4,5,6,7-tetrahydro-2H-pyrazolo[3,4-b]pyridine], 164.2 to 166.8 °C.
